Source: patent US9890138B2, “Diaminopyrimidine derivatives and processes for the preparation thereof” (YUHAN CORPORATION, priority 2011, dated 2018)
Counter-ions that a name gives are not always drawn.

Biological target: T1, human 5-HT4(a) (Homo sapiens, UniProt Q13639)
T1 construct: host or cells: GeneBlAzer HTR4-CRE-bla CHO-K1 cells
Test: Evaluation of agonistic activity in CHO-K1 cells expressing human 5-HT4(a) (GeneBlAzer HTR4-CRE-bla CHO-K1, beta-lactamase reporter)
Type: cell-based
Conditions: CHO-K1 cells stably expressing human 5-HT4(a)
Description: Test Example 1: Evaluation of Agonistic Activity in CHO-K1 Cells Expressing Human 5-HT4(a)
As CHO-K1 cells stably expressing human 5-HT4(a), we used the GeneBlAzer HTR4-CRE-bla CHO-K1 cells (Invitrogen Corp.). The cells were cultured, under the condition of 37[…] and 5% CO2, in a DMEM supplemented with 10% fetal bovine serum (FBS), 25 mM HEPES (pH7.4), 600 μg/ml hygromycin B, 0.1 mM non-essential amino acids, 100 unit/ml penicillin and 100 μg/ml streptomycin. Subcultures were performed three times per one week, each being at less than 80% confluence. At the previous day before treating test compounds, the cells were collected using 0.5% trypsin/EDTA and then diluted with a DMEM supplemented with 1% FBS, 25 mM HEPES, and 0.1 mM non-essential amino acids into 3.125×10^5 cells/ml. 32 μl of the diluted cells were added into 384-well plate (10^4 cells per well) and then incubated overnight. After the overnight culture, 8 μl of the medium having 1% of DMSO was added into the cell-free control well and the non-stimulating control well, respectively. 8 μl of the respective test compound dilutions (which had been prepared by diluting by 100-times with the medium as mentioned in the above) having 1% of DMSO were added to the respective remaining wells. After being cultured in the incubator for 5 hours, the wells of the 384-plate were treated with the substrate solution (8 μl per well) prepared according to the vendor's instruction (i.e., Invitrogen's instruction), and then incubated in the dark room for additional two hours. Agonistic activities on 5-HT4 receptor were evaluated, on the basis of fluorescence values of the cleavage-products by beta-lactamase. After exciting to 410 nm of wavelength using a fluorescence detector (Genios Pro), we measured the fluorescence values at two emission wavelengths (first wavelength: 465 nm, second wavelength: 535 nm). Data were analyzed on the basis of the ratio of fluorescence intensities of each well at the respective wavelengths. Each EC50 value was calculated by non-linear regression analysis using the “GraphPad Prism” program, based on the activities according to 8-different concentrations of the test compounds.

T1 sequence (Q13639 1-387 isoform Q13639-2): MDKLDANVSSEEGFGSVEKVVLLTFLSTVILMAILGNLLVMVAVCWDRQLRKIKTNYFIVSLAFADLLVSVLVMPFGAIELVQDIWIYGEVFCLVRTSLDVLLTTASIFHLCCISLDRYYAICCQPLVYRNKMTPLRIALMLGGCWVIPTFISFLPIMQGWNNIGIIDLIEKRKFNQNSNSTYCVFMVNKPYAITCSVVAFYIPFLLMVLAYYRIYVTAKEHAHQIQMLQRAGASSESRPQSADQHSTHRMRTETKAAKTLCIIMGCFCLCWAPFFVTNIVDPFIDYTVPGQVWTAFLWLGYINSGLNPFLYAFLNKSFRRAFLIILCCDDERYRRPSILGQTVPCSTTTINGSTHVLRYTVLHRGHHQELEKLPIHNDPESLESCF

SMILES | EC50 [nM]
CCCc1cc(N2CC[C@H](NCc3ccc(OC(C)=O)cc3)C2)nc(Nc2cccc(C#N)c2)n1 [Example 109, (S)-4-({1-[2-(3-cyanophenylamino)-6-propylpyrimidin-4-yl]pyrrolidin-3-ylamino}methyl)phenylacetate] | 0.012
CCCc1cc(N2CC[C@H](NC(C)=O)C2)nc(Nc2ccc3cc[nH]c3c2)n1 [Example 243] | 0.011
CCCc1cc(N2CC[C@H](NCCC(C)C)C2)nc(Nc2cccc(C#N)c2)n1 [Example 93, (S)-3-{4-[3-(isopentylamino)pyrrolidin-1-yl]-6-propylpyrimidin-2-ylamino}benzonitrile] | 0.01
CCCCc1cc(N2CC[C@H](NC)C2)nc(Nc2ccc(C)c([N+](=O)[O-])c2)n1 [Example 448] | 0.0025
CCCc1cc(N2CC[C@H](NC(=O)Cc3ccncc3)C2)nc(Nc2ccc(C)c(C#N)c2)n1 [Example 429] | 0.025
CCCc1cc(N2CC[C@H](NC(=O)Cc3ccncc3)C2)nc(Nc2cccc(C#N)c2)n1 [Example 78, (S)-N-{1-[2-(3-cyanophenylamino)-6-propylpyrimidin-4-yl]pyrrolidin-3-yl}-2-(pyridin-4-yl)acetamide] | 0.28
CCCc1cc(N2CC[C@H](NC)C2)nc(Nc2ccc(C)c(C#N)c2)n1 [Example 170] | 0.0013
CCCc1cc(N2CC[C@H](O)C2)nc(Nc2cccc(C#N)c2)n1 [Example 52, (S)-3-[4-(3-hydroxypyrrolidin-1-yl)-6-propylpyrimidin-2-ylamino]benzonitrile] | 0.33
CCCc1cc(N2CC[C@H](NCC)C2)nc(Nc2ccc(N)c([N+](=O)[O-])c2)n1 [Example 176] | 0.018
CCCc1cc(N2CC[C@H](NCc3ccc(CC)cc3)C2)nc(Nc2cccc(C#N)c2)n1 [Example 92, (S)-3-{4-[3-(4-ethylbenzylamino)pyrrolidin-1-yl]-6-propylpyrimidin-2-ylamino}benzonitrile] | 0.057
CCCc1cc(N2CCC(NC(C)=O)C2)nc(Nc2ccc3[nH]c(C(F)(F)F)nc3c2)n1 (stereo not drawn) [Example 307] | 0.24
CCCc1cc(N2CC[C@H](NC3CCCC3)C2)nc(Nc2ccc(C)c(C#N)c2)n1 [Example 420] | 0.0029
CCCc1cc(N2CC[C@H](NCC3CC3)C2)nc(Nc2cccc(SC)c2)n1 [Example 378] | 0.015
CCCc1cc(N2CC[C@H](NCCCc3ccccc3)C2)nc(Nc2cccc(C#N)c2)n1 [Example 89, (S)-3-{4-[3-(3-phenylpropylamino)pyrrolidin-1-yl]-6-propylpyrimidin-2-ylamino}benzonitrile] | 0.08
CCCc1cc(N2CC[C@H](NC(=O)CO)C2)nc(Nc2ccc(Cl)c(N)c2)n1 [Example 479] | 0.0064
CCCc1cc(N2CC[C@H](NC(=O)CO)C2)nc(Nc2cc(N)cc(C(F)(F)F)c2)n1 [Example 475] | 0.011
CCCc1cc(N2CC[C@H](NC(C)CCC(C)C)C2)nc(Nc2cccc(C#N)c2)n1 (stereo partly drawn) [Example 134, (S)-3-{4-[3-(5-methylhexan-2-ylamino)pyrrolidin-1-yl]-6-propylpyrimidin-2-ylamino}benzonitrile] | 0.214
CCCc1cc(N2CC[C@H](N)C2)nc(Nc2ccc(Cl)c([N+](=O)[O-])c2)n1 [Example 344, (S)-4-(3-aminopyrrolidin-1-yl)-N-(4-chloro-3-nitrophenyl)-6-propylpyrimidin-2-amine dihydrochloride] | 0.0092
CCCc1cc(N2CC[C@H](NC(CC(C)C)CC(C)C)C2)nc(Nc2cccc(C#N)c2)n1 [Example 129, (S)-3-{4-[3-(2,6-dimethylheptan-4-ylamino)pyrrolidin-1-yl]-6-propylpyrimidin-2-ylamino}benzonitrile] | 0.323
CCCc1cc(N2CC[C@H](NC(C)=O)C2)nc(Nc2ccc(N)c(C(F)(F)F)c2)n1 [Example 261] | 0.0071
CCCc1cc(N2CC[C@H](NCC(C)(C)C)C2)nc(Nc2ccc(C)c(C#N)c2)n1 [Example 423] | 0.0084

The next lines start with the values.

EC50 [nM] | SMILES
0.014 | CCCCc1cc(N2CC[C@H](NC)C2)nc(Nc2ccc(F)c(C(F)(F)F)c2)n1 [Example 454]
0.005 | CCCc1cc(N2CC[C@H](NC)C2)nc(Nc2ccc3cc[nH]c3c2)n1 [Example 121, (S)-N-{4-[3-(methylamino)pyrrolidin-1-yl]-6-propylpyrimidin-2-yl}-1H-indol-6-amine]
0.008 | CCCc1cc(N2CC[C@H](NCc3ccc[nH]3)C2)nc(Nc2cccc(C#N)c2)n1 [Example 111, (S)-3-(4-{3-[(1H-pyrrol-2-yl)methylamino]pyrrolidin-1-yl}-6-propylpyrimidin-2-ylamino)benzonitrile]
0.3 | CCCc1cc(N2CCC[C@H]2CO)nc(Nc2cccc(C(F)(F)F)c2)n1 [Example 203]
0.11 | CCCc1cc(N2CCC(NC(C)=O)C2)nc(Nc2cccc(C(F)(F)F)c2)n1 (stereo not drawn) [Example 301]
0.0022 | CCCc1cc(N2CC[C@H](NC(C)C)C2)nc(Nc2ccc(C)c(C#N)c2)n1 [Example 418, (S)-5-{4-[3-(isopropylamino)pyrrolidin-1-yl]-6-propylpyrimidin-2-ylamino]-2-methylbenzonitrile]
0.022 | CCCc1cc(N2CC[C@H](NC(=O)CO)C2)nc(Nc2ccc(F)c(C#N)c2)n1 [Example 473]
0.066 | CCCc1cc(N2CC[C@H](NC(=O)Cc3cccnc3)C2)nc(Nc2ccc(C)c(C#N)c2)n1 [Example 428]
0.1 | CCCc1cc(N2CC[C@H](NC(=O)Cc3ccccc3)C2)nc(Nc2cccc(C#N)c2)n1 [Example 66, (S)-N-{1-[2-(3-cyanophenylamino)-6-propylpyrimidin-4-yl]pyrrolidin-3-yl}-2-phenylacetamide]
0.0039 | CCCCc1cc(N2CC[C@H](NCC)C2)nc(Nc2ccc(Cl)c([N+](=O)[O-])c2)n1 [Example 464]
0.072 | CCCc1cc(N2CC[C@H](NC3CCN(Cc4ccccc4)CC3)C2)nc(Nc2cccc(C#N)c2)n1 [Example 137, (S)-3-{4-[3-(1-benzylpiperidin-4-ylamino)pyrrolidin-1-yl]-6-propylpyrimidin-2-ylamino}benzonitrile]
0.13 | CCCc1cc(N2CC[C@H](NCc3ccccc3F)C2)nc(Nc2cccc(C#N)c2)n1 [Example 106, (S)-3-{4-[3-(2-fluorobenzylamino)pyrrolidin-1-yl]-6-propylpyrimidin-2-ylamino}benzonitrile]
0.032 | CCCc1cc(N2CC[C@H](NC(=O)CO)C2)nc(Nc2ccc(C)c(Cl)c2)n1 [Example 480]
0.036 | CCCc1cc(N2CC[C@H](NC3CN(C(=O)OC(C)(C)C)C3)C2)nc(Nc2cccc(C#N)c2)n1 [Example 144, (S)-tert-butyl 3-{1-[2-(3-cyanophenylamino)-6-propylpyrimidin-4-yl]pyrrolidin-3-ylamino}azetidine-1-carboxylate]
0.0014 | CCCCc1cc(N2CC[C@H](NCC)C2)nc(Nc2ccc(N)c(C(F)(F)F)c2)n1 [Example 467]
0.03 | CCCc1cc(N2CC[C@H](N)C2)nc(Nc2cccc(C(F)(F)F)c2)n1 [Example 347, (S)-4-(3-aminopyrrolidin-1-yl)-6-propyl-N-[3-(trifluoromethyl)phenyl]pyrimidin-2-amine dihydrochloride]
0.111 | CCCc1cc(N2CC[C@H](CN(CC)CC)C2)nc(Nc2cccc(C#N)c2)n1 [Example 434]
0.02 | CCCc1cc(N2CC[C@H](NCC)C2)nc(Nc2ccc(N)c([N+](=O)[O-])c2)n1 [Example 177]
0.0075 | CCCc1cc(N2CC[C@H](NC(=O)CO)C2)nc(Nc2ccc(C)c(C#N)c2)n1 [Example 472, (S)—N-{1-[2-(3-cyano-4-methylphenylamino)-6-propylpyrimidin-4-yl]pyrrolidin-3-yl}-2-hydroxyacetamide]
0.0019 | CCCc1cc(N2CC[C@H](NC)C2)nc(Nc2ccc(N)c(C(F)(F)F)c2)n1 [Example 123, (S)-N^1-{4-[3-(methylamino)pyrrolidin-1-yl]-6-propylpyrimidin-2-yl}-3-(trifluoromethyl)benzene-1,4-diamine dihydrochloride]
0.078 | CCCc1cc(N2CCC[C@H]2COC)nc(Nc2ccc(C)c(N)c2)n1 [Example 366]
0.0021 | CCCCc1cc(N2CC[C@H](NCC)C2)nc(Nc2ccc(F)c(C#N)c2)n1 [Example 469]
0.098 | CCCc1cc(N2CCC[C@H]2C)nc(Nc2cccc(C#N)c2)n1 [Example 53, (R)-3-[4-(2-methylpyrrolidin-1-yl)-6-propylpyrimidin-2-ylamino]benzonitrile]
0.0035 | CCCc1cc(N2CC[C@H](N)C2)nc(Nc2ccc(C)c([N+](=O)[O-])c2)n1 [Example 351, (S)-4-(3-aminopyrrolidin-1-yl)-N-(4-methyl-3-nitrophenyl)-6-propylpyrimidin-2-amine dihydrochloride]
